Columns and labels:
Test in all cases: HPLC of c-di-GMP hydrolysis to pGpG
Assay type in all cases: biochemical
Settings in all cases: 250 µM c-di-GMP, 1-5 µM enzyme, 37°C
[1] = target: T1, PdeD (Lmo0111), PdeD::His6 (Listeria monocytogenes, UniProt Q8YAK7)
T1 construct: tag kept

[2] = target: T2, PdeC (Lmo1914), MBP::PdeC (Listeria monocytogenes, UniProt Q8Y5Y9)
T2 construct: MBP fusion (pMAL-c2x), E. coli DH5alpha, amylose resin; MBP kept

[3] = target: T3, PdeB (Lmo0131), PdeB::His6 (Listeria monocytogenes, UniProt Q8YAJ4)
T3 construct: tag kept
T3 sequence (Q8YAJ4 entry or part of it): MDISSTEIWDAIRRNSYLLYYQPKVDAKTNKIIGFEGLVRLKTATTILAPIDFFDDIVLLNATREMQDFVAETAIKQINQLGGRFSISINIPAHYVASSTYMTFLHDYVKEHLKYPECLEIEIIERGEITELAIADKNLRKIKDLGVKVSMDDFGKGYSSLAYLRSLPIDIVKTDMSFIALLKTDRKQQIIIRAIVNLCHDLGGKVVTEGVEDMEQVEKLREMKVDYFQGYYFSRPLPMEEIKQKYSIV

T2 sequence (Q8Y5Y9 entry or part of it): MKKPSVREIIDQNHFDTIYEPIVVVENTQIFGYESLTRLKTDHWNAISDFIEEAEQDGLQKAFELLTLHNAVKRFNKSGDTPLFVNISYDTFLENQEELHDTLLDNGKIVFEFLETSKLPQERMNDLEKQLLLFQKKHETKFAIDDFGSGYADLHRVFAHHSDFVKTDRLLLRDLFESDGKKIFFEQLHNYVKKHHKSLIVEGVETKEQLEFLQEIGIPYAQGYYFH
T1 sequence (Q8YAK7 entry or part of it): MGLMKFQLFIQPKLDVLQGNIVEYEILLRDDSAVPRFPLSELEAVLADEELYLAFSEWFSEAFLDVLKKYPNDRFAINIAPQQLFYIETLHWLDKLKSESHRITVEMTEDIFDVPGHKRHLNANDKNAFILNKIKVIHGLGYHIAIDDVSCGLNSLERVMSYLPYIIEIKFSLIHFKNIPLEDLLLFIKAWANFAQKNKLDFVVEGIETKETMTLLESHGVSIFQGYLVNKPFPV

Nc1nc2c(ncn2[C@@H]2O[C@@H]3COP(=O)(O)O[C@H]4[C@@H](O)[C@H](n5cnc6c(=O)[nH]c(N)nc65)O[C@@H]4COP(=O)(O)O[C@H]3[C@H]2O)c(=O)[nH]1 [c-di-GMP]
HPLC of c-di-GMP hydrolysis to pGpG [1]: all three recombinant proteins possess c-di-GMP PDE activities in vitro | HPLC of c-di-GMP hydrolysis to pGpG [2]: all three recombinant proteins possess c-di-GMP PDE activities in vitro | HPLC of c-di-GMP hydrolysis to pGpG [3]: all three recombinant proteins possess c-di-GMP PDE activities in vitro
